According to patent US9469650B2, “Melampomagnolide B derivatives” (BOARD OF TRUSTEES OF THE UNIVERSITY OF ARKANSAS, priority 2013, dated 2016):

Key:
SW-620 = test: panel of 60 human tumor cell lines, growth inhibition (Colon Cancer); conditions: SW-620
IGROV1 = test: panel of 60 human tumor cell lines, growth inhibition (Ovarian Cancer); conditions: IGROVI
SNB-75 = test: panel of 60 human tumor cell lines, growth inhibition (CNS Cancer); conditions: SNB-75
T-47D = test: panel of 60 human tumor cell lines, growth inhibition (Breast Cancer); conditions: T-47D
MDA-MB-468 = test: as above; conditions: MDA-MB-468
HCC-2998 = test: panel of 60 human tumor cell lines, growth inhibition (Colon Cancer); conditions: HCC-2998
MOLT-4 = test: panel of 60 human tumor cell lines, growth inhibition (Leukemia); conditions: MOLT-4
786-0 = test: panel of 60 human tumor cell lines, growth inhibition (Renal Cancer); conditions: 786-0
SF-268 = test: panel of 60 human tumor cell lines, growth inhibition (CNS Cancer); conditions: SF-268
A498 = test: panel of 60 human tumor cell lines, growth inhibition (Renal Cancer); conditions: A498
HCT-116 = test: panel of 60 human tumor cell lines, growth inhibition (Colon Cancer); conditions: HCT-116
MCF7 = test: panel of 60 human tumor cell lines, growth inhibition (Breast Cancer); conditions: MCF7
CAKI-1 = test: panel of 60 human tumor cell lines, growth inhibition (Renal Cancer); conditions: CAKI-1
SNB-19 = test: panel of 60 human tumor cell lines, growth inhibition (CNS Cancer); conditions: SNB-19
SR = test: panel of 60 human tumor cell lines, growth inhibition (Leukemia)
NCI/ADR-RES = test: panel of 60 human tumor cell lines, growth inhibition (Ovarian Cancer)
HS 578T = test: panel of 60 human tumor cell lines, growth inhibition (Breast Cancer); conditions: HS 578T
UO-31 = test: panel of 60 human tumor cell lines, growth inhibition (Renal Cancer); conditions: UO-31
TK-10 = test: as above; conditions: TK-10

C=C1C(=O)O[C@H]2[C@H]1CC/C(COC(=O)CCC(=O)N1CCC(C)CC1)=C\CC[C@@]1(C)O[C@@H]21 [JVM 2-70]
Percent Growth (SW-620; Log10 Concentration −4.0): −80% | Percent Growth (SW-620; Log10 Concentration −5.0): 1% | Percent Growth (SW-620; Log10 Concentration −6.0): 79% | Percent Growth (SW-620; Log10 Concentration −7.0): 97% | Percent Growth (SW-620; Log10 Concentration −8.0): 99% | GI50 (SW-620; NCI five dose): 2330 nM | TGI (SW-620; NCI five dose): 1.02E−5 | Percent Growth (IGROV1; Log10 Concentration −4.0): −52% | Percent Growth (IGROV1; Log10 Concentration −5.0): 19% | Percent Growth (IGROV1; Log10 Concentration −6.0): 104% | Percent Growth (IGROV1; Log10 Concentration −7.0): 118% | Percent Growth (IGROV1; Log10 Concentration −8.0): 109% | GI50 (IGROV1; NCI five dose): 4.32 µM | TGI (IGROV1; NCI five dose): 1.85E−5 | Percent Growth (SNB-75; Log10 Concentration −4.0): −85% | Percent Growth (SNB-75; Log10 Concentration −5.0): 57% | Percent Growth (SNB-75; Log10 Concentration −6.0): 80% | Percent Growth (SNB-75; Log10 Concentration −7.0): 81% | Percent Growth (SNB-75; Log10 Concentration −8.0): 72% | GI50 (SNB-75; NCI five dose): 11.2 µM | TGI (SNB-75; NCI five dose): 2.53E−5 | Percent Growth (T-47D; Log10 Concentration −4.0): −48% | Percent Growth (T-47D; Log10 Concentration −5.0): 34% | Percent Growth (T-47D; Log10 Concentration −6.0): 94% | Percent Growth (T-47D; Log10 Concentration −7.0): 94% | Percent Growth (T-47D; Log10 Concentration −8.0): 86% | GI50 (T-47D; NCI five dose): 5.45 µM | TGI (T-47D; NCI five dose): 2.61E−5 | Percent Growth (MDA-MB-468; Log10 Concentration −4.0): −69% | Percent Growth (MDA-MB-468; Log10 Concentration −5.0): −33% | Percent Growth (MDA-MB-468; Log10 Concentration −6.0): 52% | Percent Growth (MDA-MB-468; Log10 Concentration −7.0): 92% | Percent Growth (MDA-MB-468; Log10 Concentration −8.0): 88% | GI50 (MDA-MB-468; NCI five dose): 1060 nM | TGI (MDA-MB-468; NCI five dose): 4.06E−6 | CC50 (MDA-MB-468; read-out: LC50, NCI five dose): 29.8 µM | Percent Growth (HCC-2998; Log10 Concentration −4.0): −80% | Percent Growth (HCC-2998; Log10 Concentration −5.0): 59% | Percent Growth (HCC-2998; Log10 Concentration −6.0): 110% | Percent Growth (HCC-2998; Log10 Concentration −7.0): 103% | Percent Growth (HCC-2998; Log10 Concentration −8.0): 106% | GI50 (HCC-2998; NCI five dose): 11.5 µM | TGI (HCC-2998; NCI five dose): 2.65E−5 | Percent Growth (MOLT-4; Log10 Concentration −4.0): −49% | Percent Growth (MOLT-4; Log10 Concentration −5.0): −9% | Percent Growth (MOLT-4; Log10 Concentration −6.0): 115% | Percent Growth (MOLT-4; Log10 Concentration −7.0): 119% | Percent Growth (MOLT-4; Log10 Concentration −8.0): 110% | GI50 (MOLT-4; NCI five dose): 3.33 µM | TGI (MOLT-4; NCI five dose): 8.45E−6 | Percent Growth (786-0; Log10 Concentration −4.0): −78% | Percent Growth (786-0; Log10 Concentration −5.0): 39% | Percent Growth (786-0; Log10 Concentration −6.0): 100% | Percent Growth (786-0; Log10 Concentration −7.0): 98% | Percent Growth (786-0; Log10 Concentration −8.0): 90% | GI50 (786-0; NCI five dose): 6.64 µM | TGI (786-0; NCI five dose): 2.17E−5 | Percent Growth (SF-268; Log10 Concentration −4.0): −72% | Percent Growth (SF-268; Log10 Concentration −5.0): 67% | Percent Growth (SF-268; Log10 Concentration −6.0): 93% | Percent Growth (SF-268; Log10 Concentration −7.0): 101% | Percent Growth (SF-268; Log10 Concentration −8.0): 100% | GI50 (SF-268; NCI five dose): 13.2 µM | TGI (SF-268; NCI five dose): 3.02E−5 | Percent Growth (A498; Log10 Concentration −4.0): −92% | Percent Growth (A498; Log10 Concentration −5.0): 29% | Percent Growth (A498; Log10 Concentration −6.0): 67% | Percent Growth (A498; Log10 Concentration −7.0): 54% | Percent Growth (A498; Log10 Concentration −8.0): 58% | GI50 (A498; NCI five dose): 2770 nM | TGI (A498; NCI five dose): 1.73E−5 | Percent Growth (HCT-116; Log10 Concentration −4.0): −93% | Percent Growth (HCT-116; Log10 Concentration −5.0): −46% | Percent Growth (HCT-116; Log10 Concentration −6.0): 79% | Percent Growth (HCT-116; Log10 Concentration −7.0): 95% | Percent Growth (HCT-116; Log10 Concentration −8.0): 91% | GI50 (HCT-116; NCI five dose): 1690 nM | TGI (HCT-116; NCI five dose): 4.25E−6 | Percent Growth (MCF7; Log10 Concentration −4.0): −63% | Percent Growth (MCF7; Log10 Concentration −5.0): 4% | Percent Growth (MCF7; Log10 Concentration −6.0): 74% | Percent Growth (MCF7; Log10 Concentration −7.0): 88% | Percent Growth (MCF7; Log10 Concentration −8.0): 83% | GI50 (MCF7; NCI five dose): 2220 nM | TGI (MCF7; NCI five dose): 1.16E−5 | Percent Growth (CAKI-1; Log10 Concentration −4.0): −93% | Percent Growth (CAKI-1; Log10 Concentration −5.0): 4% | Percent Growth (CAKI-1; Log10 Concentration −6.0): 88% | Percent Growth (CAKI-1; Log10 Concentration −7.0): 95% | Percent Growth (CAKI-1; Log10 Concentration −8.0): 90% | GI50 (CAKI-1; NCI five dose): 2830 nM | TGI (CAKI-1; NCI five dose): 1.11E−5 | Percent Growth (SNB-19; Log10 Concentration −4.0): −80% | Percent Growth (SNB-19; Log10 Concentration −5.0): 73% | Percent Growth (SNB-19; Log10 Concentration −6.0): 95% | Percent Growth (SNB-19; Log10 Concentration −7.0): 96% | Percent Growth (SNB-19; Log10 Concentration −8.0): 95% | GI50 (SNB-19; NCI five dose): 14 µM | TGI (SNB-19; NCI five dose): 2.98E−5 | Percent Growth (SR; Log10 Concentration −4.0): −38% | Percent Growth (SR; Log10 Concentration −5.0): 6% | Percent Growth (SR; Log10 Concentration −6.0): 84% | Percent Growth (SR; Log10 Concentration −7.0): 102% | Percent Growth (SR; Log10 Concentration −8.0): 101% | GI50 (SR; NCI five dose): 2720 nM | TGI (SR; NCI five dose): 1.39E−5 | Percent Growth (NCI/ADR-RES; Log10 Concentration −4.0): −52% | Percent Growth (NCI/ADR-RES; Log10 Concentration −5.0): 64% | Percent Growth (NCI/ADR-RES; Log10 Concentration −6.0): 99% | Percent Growth (NCI/ADR-RES; Log10 Concentration −7.0): 104% | Percent Growth (NCI/ADR-RES; Log10 Concentration −8.0): 95% | GI50 (NCI/ADR-RES; NCI five dose): 13.1 µM | TGI (NCI/ADR-RES; NCI five dose): 3.55E−5 | Percent Growth (HS 578T; Log10 Concentration −4.0): 6% | Percent Growth (HS 578T; Log10 Concentration −5.0): 70% | Percent Growth (HS 578T; Log10 Concentration −6.0): 86% | Percent Growth (HS 578T; Log10 Concentration −7.0): 92% | Percent Growth (HS 578T; Log10 Concentration −8.0): 92% | GI50 (HS 578T; NCI five dose): 20.4 µM | TGI (HS 578T; NCI five dose): >1.00E−4 | Percent Growth (UO-31; Log10 Concentration −4.0): −84% | Percent Growth (UO-31; Log10 Concentration −5.0): 19% | Percent Growth (UO-31; Log10 Concentration −6.0): 88% | Percent Growth (UO-31; Log10 Concentration −7.0): 94% | Percent Growth (UO-31; Log10 Concentration −8.0): 96% | GI50 (UO-31; NCI five dose): 3.56 µM | TGI (UO-31; NCI five dose): 1.53E−5 | Percent Growth (TK-10; Log10 Concentration −4.0): −97% | Percent Growth (TK-10; Log10 Concentration −5.0): 9% | Percent Growth (TK-10; Log10 Concentration −6.0): 109% | Percent Growth (TK-10; Log10 Concentration −7.0): 106% | Percent Growth (TK-10; Log10 Concentration −8.0): 97% | GI50 (TK-10; NCI five dose): 3.9 µM | TGI (TK-10; NCI five dose): 1.23E−5
